Data from patent US6531472B2, “Tetralone derivatives” (Hoffman-La Roche Inc., priority 2000, dated 2003).

Tested on: HDAC
Assay: HDAC inhibition screening assay using an aminocoumarin derivative of an omega-acetylated lysine as substrate
Assay type: biochemical
Settings: compound concentration 10 nM
Experimental: To measure the HDAC inhibitory properties of the compounds of the invention a screening assay was established using an aminocoumarin derivative of an omega-acetylated lysine as substrate for the enzyme. […] Using the protocol described therein, the inhibitory effect of the new compounds was determined at a concentration of 10 nM.

Structure (SMILES) | Inhibitory effect at 10 nM in % [%]
COc1ccc2c(c1)CCC(CCCCC(=O)NO)C2=O (stereo not drawn) [Example 2, 5-(6-methoxy-1-oxo-1,2,3,4-tetrahydro-naphthalen-2-yl)-pentanoic acid hydroxyamide] | 64
CCOC(=O)C1(CCCCCCCC(=O)NO)CCc2c(C)cc(C)cc2C1=O (stereo not drawn) [Example 10, 2-(7-Hydroxycarbamoyl-heptyl)-5,7-dimethyl-1-oxo-1,2,3,4-tetrahydro-naphtalene-2-carboxylic acid ethyl ester] | 55
CC1(CCCCCC(=O)NO)CCc2ccccc2C1=O (stereo not drawn) [Example 4, 6-(2-methyl-1-oxo-1,2,3,4-tetrahydro-naphthalen-2-yl)-hexanoic acid hydroxyamide] | 71
COc1cccc2c1CCC(CCCCCC(=O)NO)C2=O (stereo not drawn) [Example 8] | 72
CCOC(=O)C1(CCCCCC(=O)NO)CCc2c(OC)cccc2C1=O (stereo not drawn) [Example 9, 2-(5-hydroxycarbamoyl-pentyl)-5-methoxy-1-oxo-1,2,3,4-tetrahydro-naphtalene-2-carboxyclic acid ethyl ester] | 57
CC1(/C=C/CCCC(=O)NO)CCc2ccccc2C1=O (stereo not drawn) [Example 7, 6-(2-methyl-1-oxo-1,2,3,4-tetrahydro-naphthalen-2-yl)-hex-5-enoic acid hydroxyamide] | 60
